Tests used:
bermudagrass = assay: Test C pre-/postemergence test; type: in vivo, Cynodon dactylon; settings: for Plant response rating (0 to 100), Bermudagrass: 250 g ai/ha
Outline: (§1)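 Compounds in a non-phytotoxic solvent with surfactant applied preemergence to seeded pots and, at the same time, postemergence to plants 2–18 cm tall (1- to 4-leaf stage). Paddy tests: pots flooded to 3 cm, compound applied into the water, depth held throughout.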

giant foxtail [1] = assay: Test A pre-/postemergence greenhouse test; type: in vivo, Setaria faberi; settings: for Foxtail, Giant plant response rating: 0 to 100 scale; for Plant response rating, Foxtail, Giant: 0 to 100 scale where 0 is no effect and 100 is complete control
Outline: (§2)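 Planting was into mixed loam soil and sand; preemergence treatment followed as a directed soil spray. Concurrently, emerged plants (one- to two-leaf, 2–10 cm) received postemergence applications of identically formulated compound (non-phytotoxic solvent, surfactant). After approximately ten days under greenhouse conditions, injury was judged by eye against untreated plants.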

Surinam grass = assay: Test C pre-/postemergence test; type: in vivo, Brachiaria decumbens
Outline: as §1

rice = assay: Test C flooded paddy test; type: in vivo, Oryza sativa; settings: Flood
Outline: (§3)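 Pots were flooded to 3 cm above the soil surface at treatment, compound applied directly to the paddy water, and that depth held throughout. Plants were kept in a greenhouse for 13 to 15 days, then visually rated against untreated controls.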

crabgrass = assay: Test C pre-/postemergence test; type: in vivo, Digitaria sanguinalis; settings: for Plant response rating (0 to 100), Crabgrass, Large: 250 g ai/ha
Outline: as §1

giant foxtail [2] = assay: Test C pre-/postemergence test; type: in vivo, Setaria faberii; settings: for Plant response rating (0 to 100), Foxtail, Giant: 250 g ai/ha
Outline: as §1

catchweed bedstraw = assay: Test C pre-/postemergence test; type: in vivo, Galium aparine; settings: for Plant response rating (0 to 100), Galium: 250 g ai/ha
Outline: as §1

barnyardgrass = assay: Test C flooded paddy test; type: in vivo, Echinochloa crus-galli; settings: Flood
Outline: as §3

johnsongrass = assay: Test C pre-/postemergence test; type: in vivo, Sorghum halepense; settings: for Plant response rating (0 to 100), Johnsongrass: 250 g ai/ha
Outline: as §1

wheat = assay: Test A pre-/postemergence greenhouse test; type: in vivo, Triticum aestivum; settings: for Wheat plant response rating: 0 to 100 scale; for Plant response rating, Wheat: 0 to 100 scale where 0 is no effect and 100 is complete control
Outline: as §2

pigweed = assay: Test C pre-/postemergence test; type: in vivo, Amaranthus retroflexus
Outline: as §1

downy brome = assay: Test C pre-/postemergence test; type: in vivo, Bromus tectorum; settings: for Plant response rating (0 to 100), Bromegrass, Downy: 250 g ai/ha
Outline: as §1

soybean = assay: Test C pre-/postemergence test; type: in vivo, Glycine max
Outline: as §1

velvetleaf = assay: Test A pre-/postemergence greenhouse test; type: in vivo, Abutilon theophrasti; settings: for Velvetleaf plant response rating: 0 to 100 scale; for Plant response rating, Velvetleaf: 0 to 100 scale where 0 is no effect and 100 is complete control
Outline: as §2

lambsquarters = assay: Test C pre-/postemergence test; type: in vivo, Chenopodium album
Outline: as §1

corn = assay: Test A pre-/postemergence greenhouse test; type: in vivo, Zea mays; settings: for Corn plant response rating: 0 to 100 scale; for Plant response rating, Corn: 0 to 100 scale where 0 is no effect and 100 is complete control
Outline: as §2

morningglory = assay: Test C pre-/postemergence test; type: in vivo, Ipomoea coccinea
Outline: as §1

[3] = Preemergence, 31 g ai/ha, scale 0 to 100 (0 no effect, 100 complete control)
[4] = preemergence, 125 g ai/ha, scale 0 (no effect) to 100 (complete control)
[5] = Postemergence, 125 g ai/ha, 0 is no effect, 100 is complete control
[6] = Postemergence, 500 g ai/ha, 0 is no effect, 100 is complete control
[7] = Preemergence, 125 g ai/ha, 0 no effect, 100 complete control
[8] = 62 g ai/ha, Preemergence, scale 0 to 100
[9] = 31 g ai/ha, scale 0 to 100 (0 no effect, 100 complete control)
[10] = 62 g ai/ha, scale 0 to 100, 0 no effect, 100 complete control, 13 to 15 days
[11] = 125 g ai/ha, scale 0 to 100, 0 no effect, 100 complete control, 13 to 15 days
[12] = 250 g ai/ha, scale 0 to 100 (0 no effect, 100 complete control)
[13] = 31 g ai/ha, Preemergence, scale 0 to 100
[14] = 62 g ai/ha, preemergence, scale 0 (no effect) to 100 (complete control)

Cc1cc[n+]([O-])c([S+]([O-])Cc2c(C(F)(F)F)nn(C)c2Cl)c1 (racemic) [Compound 20]
Bermudagrass plant response rating (bermudagrass; 62 g ai/ha, Preemergence, scale 0 to 100 (0 no effect, 100 complete control)): 85 | Plant response rating, Bermudagrass (bermudagrass; [3]): 55 | Plant response rating (0 to 100), Bermudagrass (bermudagrass; Preemergence): 100 | Bermudagrass plant response rating (bermudagrass; [4]): 100 | Foxtail, Giant plant response rating (giant foxtail [1]; [5]): 50 | Foxtail, Giant plant response rating (giant foxtail [1]; [6]): 80 | Foxtail, Giant plant response rating (giant foxtail [1]; [7]): 80 | Plant response rating, Foxtail, Giant (giant foxtail [1]; Preemergence, 500 g ai/ha): 100 | Surinam Grass plant response rating (Surinam grass; [8]): 70 | Plant response rating, Surinam Grass (Surinam grass; [3]): 0 | Plant response rating, Rice (rice; [9]): 0 | Plant response rating, Rice (rice; [10]): 0 | Plant response rating, Rice (rice; [11]): 0 | Plant response rating, Rice (rice; [12]): 30 | Crabgrass, Large plant response rating (crabgrass; [8]): 100 | Plant response rating, Crabgrass, Large (crabgrass; [3]): 85 | Plant response rating (0 to 100), Crabgrass, Large (crabgrass; Preemergence): 100 | Foxtail, Giant plant response rating (giant foxtail [2]; [8]): 98 | Plant response rating, Foxtail, Giant (giant foxtail [2]; [3]): 85 | Plant response rating (0 to 100), Foxtail, Giant (giant foxtail [2]; Preemergence): 100 | Galium plant response rating (catchweed bedstraw; [8]): 85 | Plant response rating, Galium (catchweed bedstraw; [3]): 80 | Plant response rating (0 to 100), Galium (catchweed bedstraw; Preemergence): 100 | Plant response rating, Barnyardgrass (barnyardgrass; [9]): 0 | Plant response rating, Barnyardgrass (barnyardgrass; [10]): 0 | Plant response rating, Barnyardgrass (barnyardgrass; [11]): 30 | Plant response rating, Barnyardgrass (barnyardgrass; [12]): 70 | Johnsongrass plant response rating (johnsongrass; [8]): 80 | Plant response rating, Johnsongrass (johnsongrass; [3]): 60 | Plant response rating (0 to 100), Johnsongrass (johnsongrass; Preemergence): 100 | Wheat plant response rating (wheat; [5]): 0 | Wheat plant response rating (wheat; [6]): 60 | Wheat plant response rating (wheat; [7]): 30 | Plant response rating, Wheat (wheat; Preemergence, 500 g ai/ha): 80 | Pigweed plant response rating (pigweed; [8]): 100 | Plant response rating, Pigweed (pigweed; [3]): 80 | Bromegrass, Downy plant response rating (downy brome; [8]): 0 | Plant response rating, Bromegrass, Downy (downy brome; [3]): 0 | Plant response rating (0 to 100), Bromegrass, Downy (downy brome; Preemergence): 70 | Bromegrass, Downy plant response rating (downy brome; [4]): 70 | Soybean plant response rating (soybean; [8]): 0 | Plant response rating, Soybean (soybean; [3]): 0 | Velvetleaf plant response rating (velvetleaf; [5]): 30 | Velvetleaf plant response rating (velvetleaf; [6]): 60 | Velvetleaf plant response rating (velvetleaf; [7]): 0 | Plant response rating, Velvetleaf (velvetleaf; Preemergence, 500 g ai/ha): 60 | Lambsquarters plant response rating (lambsquarters; [8]): 100 | Plant response rating, Lambsquarters (lambsquarters; [3]): 90 | Corn plant response rating (corn; [5]): 0 | Corn plant response rating (corn; [6]): 70 | Corn plant response rating (corn; [7]): 30 | Plant response rating, Corn (corn; Preemergence, 500 g ai/ha): 60 | Morningglory plant response rating (morningglory; [8]): 85 | Plant response rating, Morningglory (morningglory; [3]): 0

Cn1nc(C(F)(F)F)c(C(Cl)S(=O)(=O)c2cccc[n+]2[O-])c1Cl (stereo not shown) [Compound 12]
Bermudagrass plant response rating (bermudagrass; [13]): 100 | Bermudagrass plant response rating (bermudagrass; [14]): 100 | Plant response rating (0 to 100), Bermudagrass (bermudagrass; Preemergence): 100 | Bermudagrass plant response rating (bermudagrass; [4]): 100 | Foxtail, Giant plant response rating (giant foxtail [1]; [5]): 50 | Foxtail, Giant plant response rating (giant foxtail [1]; [6]): 70 | Foxtail, Giant plant response rating (giant foxtail [1]; [7]): 80 | Plant response rating, Foxtail, Giant (giant foxtail [1]; Preemergence, 500 g ai/ha): 100 | Surinam Grass plant response rating (Surinam grass; [14]): 0 | Plant response rating (0 to 100), Surinam Grass (Surinam grass; Preemergence, 250 g ai/ha): 40 | Surinam Grass plant response rating (Surinam grass; [4]): 30 | Plant response rating, Rice (rice; [9]): 60 | Plant response rating, Rice (rice; [10]): 60 | Plant response rating, Rice (rice; [11]): 70 | Plant response rating, Rice (rice; [12]): 80 | Crabgrass, Large plant response rating (crabgrass; [13]): 100 | Crabgrass, Large plant response rating (crabgrass; [14]): 100 | Plant response rating (0 to 100), Crabgrass, Large (crabgrass; Preemergence): 100 | Crabgrass, Large plant response rating (crabgrass; [4]): 100 | Foxtail, Giant plant response rating (giant foxtail [2]; [13]): 80 | Foxtail, Giant plant response rating (giant foxtail [2]; [14]): 80 | Plant response rating (0 to 100), Foxtail, Giant (giant foxtail [2]; Preemergence): 100 | Foxtail, Giant plant response rating (giant foxtail [2]; [4]): 80 | Galium plant response rating (catchweed bedstraw; [13]): 80 | Galium plant response rating (catchweed bedstraw; [14]): 100 | Plant response rating (0 to 100), Galium (catchweed bedstraw; Preemergence): 100 | Galium plant response rating (catchweed bedstraw; [4]): 100 | Plant response rating, Barnyardgrass (barnyardgrass; [9]): 0 | Plant response rating, Barnyardgrass (barnyardgrass; [10]): 50 | Plant response rating, Barnyardgrass (barnyardgrass; [11]): 80 | Plant response rating, Barnyardgrass (barnyardgrass; [12]): 85 | Johnsongrass plant response rating (johnsongrass; [13]): 0 | Johnsongrass plant response rating (johnsongrass; [14]): 70 | Plant response rating (0 to 100), Johnsongrass (johnsongrass; Preemergence): 100 | Johnsongrass plant response rating (johnsongrass; [4]): 100 | Wheat plant response rating (wheat; [5]): 0 | Wheat plant response rating (wheat; [6]): 40 | Wheat plant response rating (wheat; [7]): 0 | Plant response rating, Wheat (wheat; Preemergence, 500 g ai/ha): 30 | Pigweed plant response rating (pigweed; [13]): 100 | Pigweed plant response rating (pigweed; [14]): 100 | Plant response rating (0 to 100), Pigweed (pigweed; Preemergence, 250 g ai/ha): 100 | Pigweed plant response rating (pigweed; [4]): 100 | Bromegrass, Downy plant response rating (downy brome; [13]): 0 | Bromegrass, Downy plant response rating (downy brome; [14]): 0 | Plant response rating (0 to 100), Bromegrass, Downy (downy brome; Preemergence): 0 | Bromegrass, Downy plant response rating (downy brome; [4]): 0 | Soybean plant response rating (soybean; [13]): 0 | Soybean plant response rating (soybean; [14]): 0 | Plant response rating (0 to 100), Soybean (soybean; Preemergence, 250 g ai/ha): 10 | Soybean plant response rating (soybean; [4]): 0 | Velvetleaf plant response rating (velvetleaf; [5]): 0 | Velvetleaf plant response rating (velvetleaf; [6]): 0 | Velvetleaf plant response rating (velvetleaf; [7]): 0 | Plant response rating, Velvetleaf (velvetleaf; Preemergence, 500 g ai/ha): 0 | Lambsquarters plant response rating (lambsquarters; [13]): 0 | Lambsquarters plant response rating (lambsquarters; [14]): 100 | Plant response rating (0 to 100), Lambsquarters (lambsquarters; Preemergence, 250 g ai/ha): 100 | Lambsquarters plant response rating (lambsquarters; [4]): 100 | Corn plant response rating (corn; [5]): 0 | Corn plant response rating (corn; [6]): 0 | Corn plant response rating (corn; [7]): 0 | Plant response rating, Corn (corn; Preemergence, 500 g ai/ha): 30 | Morningglory plant response rating (morningglory; [13]): 0 | Morningglory plant response rating (morningglory; [14]): 0 | Plant response rating (0 to 100), Morningglory (morningglory; Preemergence, 250 g ai/ha): 80 | Morningglory plant response rating (morningglory; [4]): 5
